Experiments:
[1] = target: T1, mouse GIP receptor (Mus musculus, UniProt Q0P543); experiment: [35S]GTPγS binding, mouse GIPR; format: biochemical; parameters: expressed in transfected cells; host or cells: low-receptor-density clonal cell lines
T1 sequence (Q0P543 19-460): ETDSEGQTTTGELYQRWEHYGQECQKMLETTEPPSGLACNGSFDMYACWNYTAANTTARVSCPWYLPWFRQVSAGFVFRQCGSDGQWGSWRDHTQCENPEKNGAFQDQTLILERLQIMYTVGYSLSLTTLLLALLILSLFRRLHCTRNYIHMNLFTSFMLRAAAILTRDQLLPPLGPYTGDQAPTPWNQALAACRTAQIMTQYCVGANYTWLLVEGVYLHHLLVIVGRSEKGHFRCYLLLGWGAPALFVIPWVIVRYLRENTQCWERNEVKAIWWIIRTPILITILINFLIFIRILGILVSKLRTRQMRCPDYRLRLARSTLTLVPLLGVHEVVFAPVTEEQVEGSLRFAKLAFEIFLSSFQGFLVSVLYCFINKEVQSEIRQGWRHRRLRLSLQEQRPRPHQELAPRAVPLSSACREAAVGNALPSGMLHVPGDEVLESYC
Method: (§1) Methods for these assays have been previously described. In brief, for GTPγs binding, the potency of ligands to stimulate receptor-dependent elevation of the GTPγS-bound Gαs subunit was determined using membrane preparations from low-receptor-density receptor clonal cell lines. Reactions were incubated for 30 min at room temperature in white, clear-bottom microtiter plates, and per cent of the maximal response was calculated using control wells as a reference. Relative EC50 values were derived by nonlinear regression analysis using the per cent response versus the concentration of ligand and fitted to a four-parameter logistic equation using GraphPad Prism 7 software. For cAMP assays, kinetic cAMP assays were performed in low-density receptor cell clones transfected with the Glosensor 22 F vector (Promega). Cells were equilibrated for 5–20 min and then 20 μl of 10× ligand was added and a luminescence time course was collected.

[2] = target: T1, mouse GIP receptor; experiment: Gs recruitment (ligand-induced BRET), mouse GIPR; format: cell-based; parameters: expressed in transfected cells; details: HEK-293T, read-out: Gs recruitment Emax
Method: BRET measurements were taken every 1 min using a PHERAstar FS multi-mode microplate reader. Baseline measurements were taken after an initial 5 min incubation with coelenterazine-h or NanoGlo-containing HBSS, after which cells were treated with either a vehicle (PBS) or the respective ligands. Ligand-specific ratiometric BRET signals were normalized to the vehicle, producing the ‘ligand-induced BRET ratio’[46], followed by additional normalization to well-specific baseline readings. Ligand-induced measurements on the temporal scale are represented as the subsequent measurement after time point zero. Positive or negative incremental area under the curves (+iAUC, –iAUC) were calculated where noted. Concentration–response curves were generated by three-parameter logistic fitting in Prism 9.0.

[3] = target: T1, mouse GIP receptor; experiment: cAMP generation (Glosensor), mouse GIPR; format: cell-based; parameters: expressed in transfected cells; host or cells: low-receptor-density clonal cell lines; details: mouse GIPR, low-density receptor clones, Glosensor; mean (s.e.m., n); read-out: cAMP Emax
Method: as §1, with “collected. Ligand (10×) was titrated by manual serial dilution in DMSO followed by step-down into assay buffer.” for “collected.”

[4] = target: mouse GLP-1 receptor (mouse) (UniProt O35659); experiment: other; competition with radioligand, header printed as [125I]GIP(1-42)OH
Chain of mouse GLP-1 receptor (mouse) (O35659 22-463): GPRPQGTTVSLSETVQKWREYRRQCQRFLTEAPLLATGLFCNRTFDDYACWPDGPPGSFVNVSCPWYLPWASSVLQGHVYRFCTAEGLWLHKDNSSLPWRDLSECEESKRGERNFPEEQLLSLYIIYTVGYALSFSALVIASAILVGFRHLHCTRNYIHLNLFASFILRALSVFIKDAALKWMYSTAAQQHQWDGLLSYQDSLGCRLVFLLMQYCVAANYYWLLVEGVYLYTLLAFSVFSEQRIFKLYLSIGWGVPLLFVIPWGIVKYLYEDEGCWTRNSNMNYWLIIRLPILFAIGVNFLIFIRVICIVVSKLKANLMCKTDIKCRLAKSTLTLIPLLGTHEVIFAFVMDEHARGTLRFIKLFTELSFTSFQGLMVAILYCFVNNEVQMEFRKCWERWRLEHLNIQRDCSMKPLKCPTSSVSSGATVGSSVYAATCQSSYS

| Compound | Emax ([1]; mGIPR GTPgS, run of 2019-06-25) | Emax ([1]; mGIPR GTPgS, run of 2022-05-11) | Emax ([1]; mGIPR GTPgS, run of 2022-05-12) | Emax ([1]; mGIPR GTPgS, run of 2022-06-16) | Emax ([1]; mGIPR GTPgS, run of 2022-06-21) | Emax ([1]; read-out: [35S]GTPγS binding Emax, mouse GIPR, membranes, 30 min room temperature, mean (s.e.m., n)) | Emax [2] | Emax [3] | Ki [4] |
| --- | --- | --- | --- | --- | --- | --- | --- | --- | --- |
| CC[C@H](C)[C@H](NC(=O)[C@H](CO)NC(=O)[C@H](Cc1ccc(O)cc1)NC(=O)[C@H](CC(=O)O)NC(=O)[C@H](CO)NC(=O)[C@@H](NC(=O)[C@H](Cc1ccccc1)NC(=O)[C@@H](NC(=O)CNC(=O)[C@H](CCC(=O)O)NC(=O)[C@H](C)NC(=O)[C@@H](N)Cc1ccc(O)cc1)[C@@H](C)O)[C@@H](C)CC)C(=O)N[C@@H](C)C(=O)N[C@@H](CCSC)C(=O)N[C@@H](CC(=O)O)C(=O)N[C@@H](CCCCN)C(=O)N[C@H](C(=O)N[C@@H](CCCNC(=N)N)C(=O)N[C@@H](CCC(N)=O)C(=O)N[C@@H](CCC(N)=O)C(=O)N[C@@H](CC(=O)O)C(=O)N[C@@H](Cc1ccccc1)C(=O)N[C@H](C(=O)N[C@@H](CC(N)=O)C(=O)N[C@@H](Cc1c[nH]c2ccccc12)C(=O)N[C@@H](CC(C)C)C(=O)N[C@@H](CC(C)C)C(=O)N[C@@H](C)C(=O)N[C@@H](CCC(N)=O)C(=O)N[C@@H](CCCNC(=N)N)C(=O)NCC(=O)N[C@@H](CCCCN)C(=O)N[C@@H](CCCCN)C(=O)N[C@@H](CO)C(=O)N[C@@H](CC(=O)O)C(=O)N[C@@H](Cc1c[nH]c2ccccc12)C(=O)N[C@@H](CCCCN)C(=O)N[C@@H](Cc1c[nH]cn1)C(=O)N[C@@H](CC(N)=O)C(=O)N[C@H](C(=O)N[C@H](C(=O)N[C@@H](CCC(N)=O)C(N)=O)[C@@H](C)O)[C@@H](C)CC)C(C)C)[C@@H](C)CC [mGIP] | 98.5% | 98.7% | 98% | 101% | 102% | 98.9% | 100% | 103% |  |
| TZP |  |  |  |  |  |  |  |  | 0.387 nM |
